From patent US6596499B2, “Membrane molecule indicator compositions and methods” (The Netherlands Cancer Institute, priority 2000, dated 2003)

Columns and labels:
PLC = assay type: cell-based, mouse
N1E-115 cells = conditions: N1E-115 and other cells; cited from earlier work

CCCCCCCC/C=C\CCCCCCCC(=O)OCC(O)COP(=O)(O)O (centres unmarked) [LPA, 1-oleoyl LPA]
translocation amplitude (PLC): 25 % of BK response control values | time for neurites to retract and cell soma to round up (N1E-115 cells): ≤ 60 s

neurokinin A [NKA]
desensitization of PLC activation on repeated stimulation (PLC): incremental partial homologous desensitization

NCCc1c[nH]cn1 [histamine]
duration of translocation response (long-lasting) (PLC): ≥ 15 min | translocation amplitude (PLC): 40 % of BK-induced peak values
